Experimental data taken from ChEMBL document CHEMBL1201862, “PubChem BioAssay data set” (2004).
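Cultured in 96-well plates, cells were exposed to test compound for 48 hours across five concentrations. GI50: concentration for 50% inhibition of growth.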 The source made the active and inactive calls. Rule as the data show it: active = GI50 up to about 1.1 µM and inactive = higher.

Experiments:
Experiment in all cases: growth of human tumour cells (NCI), 48 h
[1] = tested on: A498
[2] = tested on: CAKI-1
[3] = tested on: CCRF-CEM
[4] = tested on: EKVX
[5] = tested on: HCT-15
[6] = tested on: HL-60
[7] = tested on: HT-29
[8] = tested on: K562
[9] = tested on: MCF7
[10] = tested on: Malme-3M
[11] = tested on: PC-3
[12] = tested on: RXF 393
[13] = tested on: SF-295
[14] = tested on: SN12C
[15] = tested on: SNB-19
[16] = tested on: U-251
[17] = tested on: UACC-257
[18] = tested on: UACC-62
[19] = tested on: UO-31
[20] = tested on: SNB-75

Q: Which results are given for `O=C(c1ccc(Cl)cc1Cl)N(C(=O)N1CCCCC1)c1ccccc1`?
A: GI50 [1]: > 100 µM (inactive); GI50 [2]: > 100 µM (inactive); GI50 [3]: > 100 µM (inactive); GI50 [4]: 5.45 µM (inactive); GI50 [5]: > 100 µM; GI50 [6]: > 100 µM (inactive); GI50 [7]: > 100 µM (inactive); GI50 [8]: > 100 µM (inactive); GI50 [9]: > 100 µM (inactive); GI50 [10]: 5.94 µM (inactive); GI50 [11]: > 100 µM (inactive); GI50 [12]: > 100 µM (inactive); GI50 [13]: > 100 µM (inactive); GI50 [14]: > 100 µM (inactive); GI50 [15]: > 100 µM (inactive); GI50 [16]: > 100 µM (inactive); GI50 [17]: > 100 µM (inactive); GI50 [18]: > 100 µM (inactive); GI50 [19]: > 100 µM (inactive)

Q: For `O=S(=O)(O)c1ccc(/N=N/c2ccccc2)cc1`, which GI50 [1] is on record?
A: > 100 µM (inactive)

Q: And the GI50 [2]?
A: > 100 µM (inactive)

Q: What about the GI50 [3] of the same compound?
A: > 100 µM (inactive)

Q: What about the GI50 [4] of the same compound?
A: > 100 µM (inactive)

Q: What about the GI50 [5] of the same compound?
A: > 100 µM

Q: And the GI50 [6]?
A: > 100 µM (inactive)

Q: And the GI50 [7]?
A: > 100 µM (inactive)

Q: And the GI50 [8]?
A: > 100 µM (inactive)

Q: And the GI50 [9]?
A: > 100 µM (inactive)

Q: And the GI50 [11]?
A: > 100 µM (inactive)

Q: And the GI50 [12]?
A: > 100 µM (inactive)

Q: What about the GI50 [13] of the same compound?
A: > 100 µM (inactive)

Q: What about the GI50 [14] of the same compound?
A: > 100 µM (inactive)

Q: What about the GI50 [15] of the same compound?
A: > 100 µM (inactive)

Q: What about the GI50 [16] of the same compound?
A: > 100 µM (inactive)

Q: What about the GI50 [17] of the same compound?
A: > 100 µM (inactive)

Q: What about the GI50 [18] of the same compound?
A: > 100 µM (inactive)

Q: And the GI50 [19]?
A: > 100 µM (inactive)

Q: With `C=C(Br)COc1ccc2c(C)cc(=O)oc2c1` as the compound, how does the GI50 [1] read?
A: 64.7 µM (inactive)

Q: And the GI50 [2]?
A: 99.1 µM (inactive)

Q: What about the GI50 [3] of the same compound?
A: > 100 µM (inactive)

Q: What about the GI50 [4] of the same compound?
A: 43.3 µM (inactive)

Q: What about the GI50 [5] of the same compound?
A: 57.7 µM

Q: What about the GI50 [6] of the same compound?
A: 40.2 µM (inactive)

Q: What about the GI50 [7] of the same compound?
A: 66.4 µM (inactive)

Q: And the GI50 [8]?
A: 49 µM (inactive)

Q: What about the GI50 [9] of the same compound?
A: < 0.01 µM (active)

Q: And the GI50 [10]?
A: > 100 µM (inactive)

Q: And the GI50 [11]?
A: > 100 µM (inactive)

Q: What about the GI50 [12] of the same compound?
A: 0.0721 µM (active)

Q: What about the GI50 [14] of the same compound?
A: > 100 µM (inactive)

Q: And the GI50 [15]?
A: > 100 µM (inactive)

Q: And the GI50 [16]?
A: 65.3 µM (inactive)

Q: What about the GI50 [17] of the same compound?
A: 73.5 µM (inactive)

Q: What about the GI50 [19] of the same compound?
A: 64.1 µM (inactive)

Q: `O=P1(O)c2ccccc2CSCc2ccccc21` was tested. Which GI50 [1] did it give?
A: > 100 µM (inactive)

Q: And the GI50 [2]?
A: > 100 µM (inactive)

Q: What about the GI50 [3] of the same compound?
A: > 100 µM (inactive)

Q: What about the GI50 [4] of the same compound?
A: > 100 µM (inactive)

Q: What about the GI50 [5] of the same compound?
A: > 100 µM

Q: What about the GI50 [6] of the same compound?
A: > 100 µM (inactive)

Q: What about the GI50 [7] of the same compound?
A: > 100 µM (inactive)

Q: And the GI50 [8]?
A: > 100 µM (inactive)

Q: What about the GI50 [9] of the same compound?
A: > 100 µM (inactive)

Q: And the GI50 [11]?
A: > 100 µM (inactive)

Q: And the GI50 [12]?
A: > 100 µM (inactive)

Q: And the GI50 [13]?
A: > 100 µM (inactive)

Q: What about the GI50 [14] of the same compound?
A: > 100 µM (inactive)

Q: And the GI50 [15]?
A: > 100 µM (inactive)

Q: And the GI50 [16]?
A: > 100 µM (inactive)

Q: What about the GI50 [17] of the same compound?
A: > 100 µM (inactive)

Q: What about the GI50 [18] of the same compound?
A: > 100 µM (inactive)

Q: And the GI50 [19]?
A: > 100 µM (inactive)

Q: Which GI50 [1] does the source give for `CNC(=O)OCCN1c2ccccc2Sc2ccccc21` here?
A: 57.5 µM (inactive)

Q: What about the GI50 [2] of the same compound?
A: 36.4 µM (inactive)

Q: And the GI50 [3]?
A: > 100 µM (inactive)

Q: And the GI50 [4]?
A: 17.1 µM (inactive)

Q: What about the GI50 [5] of the same compound?
A: > 100 µM

Q: What about the GI50 [6] of the same compound?
A: > 100 µM (inactive)

Q: And the GI50 [7]?
A: > 100 µM (inactive)

Q: What about the GI50 [8] of the same compound?
A: > 100 µM (inactive)

Q: What about the GI50 [9] of the same compound?
A: > 100 µM (inactive)

Q: What about the GI50 [10] of the same compound?
A: > 100 µM (inactive)

Q: What about the GI50 [11] of the same compound?
A: 46.6 µM (inactive)

Q: And the GI50 [12]?
A: 19.2 µM (inactive)

Q: And the GI50 [13]?
A: 60.8 µM (inactive)

Q: What about the GI50 [14] of the same compound?
A: > 100 µM (inactive)

Q: What about the GI50 [15] of the same compound?
A: > 100 µM (inactive)

Q: What about the GI50 [16] of the same compound?
A: > 100 µM (inactive)

Q: What about the GI50 [17] of the same compound?
A: > 100 µM (inactive)

Q: And the GI50 [18]?
A: 4.99 µM (inactive)

Q: And the GI50 [19]?
A: 69.2 µM (inactive)

Q: For `O=C(/C(Cl)=C/c1ccccc1)c1ccccc1`, which GI50 [1] is on record?
A: 20.6 µM (inactive)

Q: And the GI50 [2]?
A: 1.7 µM (inactive)

Q: What about the GI50 [3] of the same compound?
A: 0.692 µM (active)

Q: What about the GI50 [4] of the same compound?
A: 11.2 µM (inactive)

Q: And the GI50 [5]?
A: 2.47 µM

Q: What about the GI50 [7] of the same compound?
A: 1.46 µM (inactive)

Q: What about the GI50 [8] of the same compound?
A: 2.06 µM (inactive)

Q: What about the GI50 [9] of the same compound?
A: 2.05 µM (inactive)

Q: What about the GI50 [10] of the same compound?
A: 2 µM (inactive)

Q: And the GI50 [11]?
A: 2.61 µM (inactive)

Q: And the GI50 [12]?
A: 2.46 µM (inactive)

Q: What about the GI50 [13] of the same compound?
A: 17.5 µM (inactive)

Q: What about the GI50 [14] of the same compound?
A: 1.82 µM (inactive)

Q: And the GI50 [15]?
A: 15.1 µM (inactive)

Q: And the GI50 [20]?
A: 13.2 µM (inactive)

Q: And the GI50 [16]?
A: 4.27 µM (inactive)

Q: And the GI50 [17]?
A: 6.9 µM (inactive)

Q: What about the GI50 [18] of the same compound?
A: 8.55 µM (inactive)

Q: What about the GI50 [19] of the same compound?
A: 2.32 µM (inactive)
